Assay [1] concerns Rhizoctonia solani. As to the kind of experiment: Antifungal activity against Rhizoctonia solani incubated for 48 hrs by standard broth dilution method. Type of assay: functional. A general note: Dilution methods test growth across graded concentrations, often in twofold steps.
Assay [2] deals with Colletotrichum acutatum. Put plainly: Antifungal activity against Colletotrichum acutatum incubated for 48 hrs by standard broth dilution method. Type of assay: functional.
The subject of a further assay is Phytophthora capsici. Put plainly: Antifungal activity against Phytophthora capsici incubated for 48 hrs by standard broth dilution method. Type of assay: functional.
Assay [3] deals with Botrytis cinerea. As to the kind of experiment: Antifungal activity against Botrytis cinerea incubated for 48 hrs by standard broth dilution method. Type of assay: functional.
The next assay relates to Saccharomyces cerevisiae. As to the kind of experiment: Antifungal activity against Saccharomyces cerevisiae. Type of assay: functional.
The next assay relates to Gaeumannomyces graminis. Put plainly: Antimicrobial activity against Gaeumannomyces graminis. Type of assay: functional.
The subject of assay [4] is Colletotrichum gloeosporioides. Put plainly: Antifungal activity against Colletotrichum gloeosporioides. Type of assay: functional.
Assay [5] deals with Candida albicans. Put plainly: Antimicrobial activity against Candida albicans assessed as reduction of microbial microbial growth. Type of assay: functional.
The next assay concerns Aspergillus fumigatus. As to the kind of experiment: Antimicrobial activity against Aspergillus fumigatus. Type of assay: functional.
For assay [6], the system named is Candida albicans. As to the kind of experiment: Antifungal activity against Candida albicans assessed as fungal growth inhibition. Type of assay: functional.
The next assay has as its system Aspergillus niger. Put plainly: Antifungal activity against Aspergillus niger. Type of assay: functional.
In assay [7] the test system is Candida albicans. As to the kind of experiment: Antifungal activity against Candida albicans ATCC 24433. Type of assay: functional.
Assay [8] concerns Candida albicans. Put plainly: Antifungal activity against wild type Candida albicans. Type of assay: functional, organism-based.
For assay [9], the system named is Botrytis cinerea. As to the kind of experiment: Antifungal activity against Botrytis cinerea. Type of assay: functional.
In assay [10] the test system is Candida albicans. Put plainly: Antifungal activity against Candida albicans. Type of assay: functional, organism-based.
Assay [11] concerns Colletotrichum acutatum. As to the kind of experiment: Antifungal activity against Colletotrichum acutatum. Type of assay: functional.
Assay [12] has as its system Rhizoctonia solani. As to the kind of experiment: Antifungal activity against Rhizoctonia solani. Type of assay: functional.

Values after ≈ are worked out from the molar mass of the structure shown. Where a SMILES comes first, the peptide text is derived from it. The star is where a group is joined. Tridecanoyl(3R-OH,11-Me) = CCC(C)CCCCCCC[C@@H](O)CC(=O)*; X1 = CCC(C)CC(C)CCCCC[C@@H](O)CC(=O)*

A word on the MIC: it is the lowest concentration found to suppress growth.

`CCC(C)CCCCCCC[C@@H](O)CC(=O)N[C@@H](CC(C)C)C(=O)N[C@@H](CCC(=O)O)C(=O)N[C@@H](CC(C)C)C(=O)N[C@@H](CC(C)C)C(=O)O` (stereo partly drawn) ({Tridecanoyl(3R-OH,11-Me)}-LELL-OH): the MIC in the assay on Rhizoctonia solani [1], with Colletotrichum acutatum [2], with Phytophthora capsici and against Botrytis cinerea [3] was 0.01 µg/mL (≈ 0.014 µM) each time.

In the assay with Saccharomyces cerevisiae, `C[C@@H]1CCC/C=C/[C@@H]2O[C@](O)(C[C@@H](O)C/C=C\C=C\C(O[C@@H]3O[C@H](CO)[C@@H](O)[C@H](O)[C@H]3O)C/C=C/C=C\C(=O)O1)[C@H]2O` (stereo not given in full) registered an MIC of 0.22 µg/mL (≈ 0.369 µM). Turning to `CS[C@@]12C[C@@H]3C(=O)CC[C@H](O)[C@@H]3N1C(=O)[C@]1(SC)C[C@H]3C(=O)CC[C@@H](O)[C@@H]3N1C2=O`, the minimal inhibitory concentration (MIC) in the assay with Gaeumannomyces graminis stood at 0.25 µg/mL (≈ 0.55 µM). `CC(=O)O[C@@H]1C[C@H](C)[C@@]23CC=C(C)[C@@H](C2)C[C@@](C)(O)[C@@H]13`: in assay [4], 0.125 µg/mL (≈ 0.449 µM) was the least that counted as inhibitory (MIC). Turning to `CC1CCC/C=C/[C@@H]2O[C@@H](C/C=C\C=C\[C@H](O[C@@H]3O[C@H](CO)[C@@H](O)[C@H](O)[C@H]3O)C/C=C/C=C\C(=O)O1)C[C@@H](O)[C@H]2O` (stereo not given in full), the lowest concentration to inhibit growth with Saccharomyces cerevisiae (MIC) was 0.22 µg/mL (≈ 0.379 µM). Regarding `C=C[C@@](C)(CC/C=C(\C)CC[C@]1(C)C(C=O)=CCC[C@H]1C)S(=O)(=O)CCNC(=N)N`, the minimum inhibitory concentration (MIC) in the assay with Candida albicans [5] is 4 µg/mL. As to `CCC(C)CC(C)CCCCC[C@@H](O)CC(=O)N[C@@H](CC(C)C)C(=O)N[C@@H](CCC(=O)O)C(=O)N[C@@H](CC(C)C)C(=O)N[C@@H](CC(C)C)C(=O)O` (stereo not given in full) (X1-LELL-OH), the MIC against Rhizoctonia solani [1], in the assay on Colletotrichum acutatum [2], against Phytophthora capsici and with Botrytis cinerea [3] was 0.01 µg/mL (≈ 0.0138 µM) each time. Molecule `COc1ccc(/C=C/CCCC[C@H](C)[C@H](O)[C@@H](O)[C@H]2NC(=O)C[C@@H](O)CNC(=O)CNC(=O)[C@@H](Cc3c(C(=O)O)[nH]c4ccccc34)NC(=O)CN(C)C(=O)C[C@H]3NC(=O)[C@H](O)[C@H]3NC(=O)[C@H]2O)cc1` returned an MIC with Aspergillus fumigatus of 1.3 µg/mL (≈ 1.33 µM). For `CCCC[C@H](CC)C1NC(=O)c2ccccc2N1` (stereo not given in full), in the assay on Candida albicans [6], the MIC was 0.62 µg/mL (≈ 2.52 µM). With `Cc1ccc(CC2CCC(=O)N2)c(C)c1` (stereo not given), in the assay on Aspergillus niger, the MIC came out at 1 µg/mL (≈ 4.92 µM). As for `CCCCCCCCCCCC(=O)N(CCO)CCO`, the MIC in the assay on Saccharomyces cerevisiae was determined as 0.22 µg/mL (≈ 0.765 µM).

As for `CC(C)C[C@@H](C)[C@@H](O)[C@@H](C)C(=O)N[C@H](C)C(=O)N[C@@H](CCCNC(=N)N)[C@@H](O)[C@@H](O)C(=O)N[C@@H](C(=O)N[C@@H](C(=O)O)[C@@H](C)O)[C@@H](C)CC(N)=O`, inhibition of growth against Candida albicans [7] (MIC) required 0.07 µg/mL (≈ 0.0974 µM). In the assay with Candida albicans [8], `C/C(Cl)=C/C=C/C=C/C=C/C=C/C(O)=C1\C(=O)C(CC(N)=O)N([C@@H]2OC[C@@H](O)[C@H](O)[C@H]2O[C@H]2OC[C@H](O[C@H]3O[C@@H](C)[C@H](O)[C@@H]3O)[C@H](O)[C@H]2O)C1=O` (stereo not given in full) showed a minimal inhibitory concentration (MIC) of 1.95 µg/mL (≈ 2.62 µM). With `CC[C@H](CCCCCCCCCCCCC(=O)N[C@@H](C)C(=O)O)O[C@@H]1O[C@H](COC(=O)CCC(=O)O)[C@@H](O)[C@H](O)[C@H]1O`, the minimal inhibitory concentration (MIC) in the assay on Botrytis cinerea [9], in the assay with Candida albicans [10], against Colletotrichum acutatum [11], in the assay with Rhizoctonia solani [12] and against Aspergillus niger was 0.02 µg/mL (≈ 0.033 µM) throughout.

In [4], `CC1=CC[C@]23C[C@H]1C[C@@](C)(O)[C@H]2[C@H](O)C[C@@H]3C` returned an MIC of 1 µg/mL (≈ 4.23 µM).

The record behind these values is ChEMBL document CHEMBL5260795, “Antifungal potential of marine natural products” (Eur J Med Chem, 2017).
